Values after ≈ are worked out from the molar mass of the structure shown.
Conditions: for aqueous solubility: pH 6.8

| SMILES | MDR1-MDCK efflux ratio | intrinsic clearance, human liver microsomes [mL/min/kg] | intrinsic clearance, rat liver microsomes [mL/min/kg] | aqueous solubility [µg/mL] | fraction unbound, human plasma | fraction unbound, rat plasma |
| --- | --- | --- | --- | --- | --- | --- |
| CC(C)C(=O)N1CC(Cc2nccc3ccn(C)c23)C1 | 7.28 | ≤ 4.74 | 51.9 | 62.7 (≈ 231 µM) |  |  |
| O=C(CSc1nccn1C1CC1)Nc1c(Cl)cc(Cl)cc1C(=O)O | 8.29 | 41.6 | 204 | 2.43 (≈ 6.29 µM) |  |  |
| CC(=O)N1CCN([C@H]2CCN(C(=O)c3cc4cc(C)ccc4o3)CC[C@@H]2O)CC1 | 38.8 | 7.28 | 153 |  |  |  |
| C[C@]12C=CC(=O)C=C1CC[C@@H]1[C@@H]2[C@@H](O)C[C@@]2(C)[C@H]1CC[C@]2(O)C(=O)CO | 5.44 | 25.4 | 62.9 |  |  |  |
| NCC(=O)Nc1ccc(-n2nc(C(F)(F)F)cc2-c2ccc3c(ccc4ccccc43)c2)cc1 | 2.96 |  |  | 0.25 (≈ 0.543 µM) |  |  |
| COC(=O)Nc1nc2ccccc2[nH]1 |  |  |  | 8.05 (≈ 42.1 µM) |  |  |
| CC#CC(=O)N1CC[C@@H](n2c(=O)n(-c3ccc(Oc4ccccc4)cc3)c3c(N)ncnc32)C1 | 28.9 | 21.3 | 187 | 64.6 (≈ 142 µM) | 0.0863 | 0.0467 |
| CC(=O)NC1CCC(NCCc2c(C)cccc2C)CC1 (centres undefined) | 19.8 | ≤ 4.74 | 1140 |  |  |  |
| Cc1nc(O)c2c(n1)CN(Cc1ccccc1)CC2 | 9.79 | ≤ 4.74 | ≤ 10.7 | 42.7 (≈ 167 µM) |  |  |
| CC(C)(O)CCn1cc2cc(NC(=O)c3cccc(C(F)F)n3)c(OCC3COC3)cc2n1 | 11.7 | 7.8 | 72.1 |  |  |  |
| O=c1oc2cccnc2n1Cc1ccccn1 | 2.49 | ≤ 4.74 | ≤ 10.7 |  |  |  |
| c1ccc(Cc2ccccc2-c2nnc(-c3cccnc3)o2)cc1 | 0.45 |  |  | 0.22 (≈ 0.702 µM) |  |  |
| c1ccc(C2(c3ccccc3)CCCN(Cc3nnc(C4CC4)o3)C2)cc1 | 0.685 | 246 | 1200 | 35.6 (≈ 98.9 µM) |  |  |
| N#CCNC(=O)c1ccc(C#N)c(Cl)c1 |  | ≤ 4.74 | ≤ 10.7 |  |  |  |
| CCn1c(-c2nonc2N)nc2cnc(Oc3cccc(NC(=O)c4ccc(OCCN5CCOCC5)cc4)c3)cc21 | 7.8 | 101 | 232 |  | 0.00355 | 0.00473 |
| Cc1oc(C)c(C(=O)N2CCNC(=O)C2)c1Br | 5.92 | ≤ 4.74 | ≤ 10.7 | 72.2 (≈ 240 µM) |  |  |
| O=C(Cc1cccnc1)Nc1ncccc1Cl | 0.704 | ≤ 4.74 | 31.1 |  |  |  |
| CCCCCCCCc1ccc(CCC(N)(CO)CO)cc1 |  | 7.6 | 17 |  |  |  |
| COc1ccc(Br)c(-c2nnc(N)o2)c1 | 0.707 | 16.4 | 59.2 | 24.8 (≈ 91.7 µM) |  |  |
| CCCc1nnc(NCc2cn3ccc(C)cc3n2)o1 | 3.5 | ≤ 4.74 | 34 | 21.9 (≈ 80.9 µM) |  |  |
| Cc1nn(-c2ccc(F)cc2)c(Cl)c1C(=O)N1CCC(S(=O)(=O)C(C)C)CC1 | 14.6 | ≤ 4.74 | 14.2 | 67.3 (≈ 157 µM) |  |  |
| CNC(=O)C1(Cc2ccc(-c3cccnc3)cc2)CCN(Cc2ccccc2Cl)C1 (centres undefined) | 0.961 | 446 | 559 |  | 0.0244 | 0.0188 |
| COc1ccc(-c2cc(C(C)(C)C)nc(-c3ncccn3)n2)cc1 | 1.22 | 21.6 | 75.5 |  |  |  |
| CN1CCCN(c2nc(C(F)(F)F)nc3cc4c(cc23)OCO4)CC1 | 1.11 | 22.3 | 209 | 43.3 (≈ 122 µM) |  |  |
| Cc1ncsc1CNc1nnc(-c2ccncc2)o1 | 3.75 | 8.9 | 61.5 |  |  |  |
| Cn1cc(CN2CCc3nc4ccccc4c(=O)n3CC2)cn1 | 2.78 | ≤ 4.74 | 19.9 |  |  |  |
| Clc1cc2c(NC3CCCC3)nnc(-c3ccncc3)c2cc1Cl | 0.729 |  |  | 0.19 (≈ 0.529 µM) |  |  |
| CC(C)[C@H](Nc1ncc(Cl)cn1)C(=O)N1CCCC1 | 1.08 | 15.4 | 181 | 36.2 (≈ 128 µM) |  |  |

Reference: the Biogen ADME set (Fang et al. 2023)
